Key:
healthy male subjects = experiment: Plasma testosterone response to moderate intensity cycle ergometer exercise after 10 days of oral PS or placebo (double-blind crossover); assay type: in vivo, human
Protocol: The purpose of the current study was to investigate the efficacy of short-term S-PS supplementation, at dosage levels less than the currently established dose, on testosterone response to acute moderate-intensity exercise. This study aimed to examine the influence of short-term supplementation with a moderate dose of PS (600 mg per day) on plasma concentrations of testosterone before, during, and following moderate intensity exercise in healthy males. 10 healthy male subjects participated in the study. Each subject was assigned to ingest 600 mg PS or placebo per day for 10 days using a double-blind, placebo-controlled, crossover design. Serial venous blood samples were taken at rest, after a 15 minute moderate intensity exercise protocol on a cycle ergometer that consisted of five 3-minute incremental stages beginning at 65% and ending at 85% VO2max, and during a 65 minute passive recovery. Plasma samples were assessed for testosterone for treatment (PS or placebo). PS increased AUC for testosterone to cortisol ratio (184±5%) when compared to placebo (p<0.05).
Subjects. Ten healthy males participated in this study. All subjects in this investigation participated in a familiarization session. During the familiarization session, subjects were informed as to the experimental procedures, completed a personal/medical history form, and signed informed consent statements in adherence with the human subject's guidelines of the American College of Sports Medicine. No subject in this trial was a vegetarian with all subjects reportedly consuming meat in their daily diet.
Each participant completed three testing sessions during the 21-day study. Participants performed a graded exercise test (starting at 50 W, increasing by 50 W increments every 2 minutes) on a cycle ergometer (Gary Fisher Tarpon OS Series Mountain Bike connected to a Computrainer Pro model 8002 RacerMate EBRA™ Approved System with software version 1.1.59) to assess maximal oxygen consumption (VO2max), and were scheduled for testing sessions 2 and 3 (day 11 and day 21). VO2max was determined using a Sensormedic V229 Metabolic System that was calibrated following the recommended technical guidelines (Sensormedics Corporation, Yorba Linda, Calif.). Upon completion of the VO2max test the participants were randomly assigned to one of two groups and received a 10-day supply of either the placebo or PS (600 mg per day of soy-derived PS).
The second and third exercise sessions were performed to determine testosterone responses to exercise induced stress at rest, during exercise, and recovery. On the tenth day of supplementation the participants ingested the last dose of the assigned substance (PS or placebo) and reported to the laboratory at 7 am after an overnight fast. Venous blood samples were taken on arrival (−30) and 30 minutes later, which was just prior to the start of exercise (0). Following the 30 minute rest period, the participants were asked to begin exercising on the cycle ergometer at an exercise intensity calculated to elicit 65% of VO2max. The intensity of exercise was increased automatically by 5% every 3-minute increment until the intensity was at 85% of VO2max (five-three minute stages). After cycling for a total of 15 minutes, the subject stopped exercising and a post-exercise venous blood sample was taken immediately. […]

older males = experiment: Effect of PS supplementation on serum and free testosterone of older males with exercise regimens; assay type: in vivo, human
Protocol: A. subject three, a physically active non smoking […] who took no prescription drugs or alcohol was the first subject. Starting on Day 1, the person consumed 600 mg of Phosphatidylserine (Chemi Nutra, Inc., White Bear Lake, Minn.) for 11 days accompanied by the following cardio and resistance workouts: • Day 1: lifted weights for 1.5 hours and intense cardio exercise, 12 minutes. • Day 2: intense cardio exercise for 28 minutes. • Day 3: easy pace walk, 1.5 mile. • Day 4: intense cardio exercise for 35 minutes. • Day 5: easy pace walk, 2 miles. • Day 6: lifted weights for 1.5 hours. • Days 7 and 8: rest, no exercise. • Day 9 intense cardio exercise, 35 minutes and 12 miles easy pace walk • Day 10: lifted weights 1.5 hours. Blood was drawn at 8:00 am on the first and eleventh day of the study and analyzed for serum and free testosterone by Life Extension National Diagnostics, Inc., Ft. Lauderdale, Fla. Serum testosterone rose from 575 nanograms per decilitier to 665 nanograms per deciliter, a 16% increase. B. The second subject (RJ) is a person. Starting on day 1, RJ consumed 400 mg PS daily for 11 days, accompanied by the following exercise regimens: • Day 2: bicycle ergometer for 30 minutes and elliptical trainer for 30 minutes. • Day 3: tennis singles match for 1.5 hours. • Day 4: treadmill 15 minutes and upper body resistance exercise for 1 hour. • Day 5: elliptical trainer for 45 minutes and resistance exercise for 30 minutes. • Day 6: rest. • Day 7: treadmill for 30 minutes; elliptical trainer for 30 minutes; resistance exercise for 30 minutes. • Day 8: rest. • Day 9: resistance exercise 1.5 hours. • Day 10 elliptical trainer for 1 hour. • Day 11: upper body resistance exercise for 30 minutes. Serum testosterone levels and free testosterone levels were measured on days 1 and 12. Serum testosterone increased from 290 nanograms/deciliter to 437 nanograms/deciliter, an increase of 51%. Free testosterone increased from 11.4 picograms/ml to 18.0 picograms/ml, an increase of 58%. C. The third subject is person one. The person consumed 300 mg PS (Chemi Nutra) daily for 11 days accompanied by a cardio and resistance training workout on days 2-11: • Day 2: 9 miles cycling for 35 minutes; 4 miles running for 40 minutes; 9 miles cycling for 40 minutes. • Day 3: tennis singles match for 1.5 hours. • Day 4: 9 miles cycling for 45 minutes; whole body resistance training for 1 hour; 9 miles cycling for 50 minutes. • Day 5: 9 miles cycling for 30 minutes; 5 miles running for 45 minutes; 9 miles cycling for 30 minutes • Day 6: rest. • Day 7: rest. • Day 8: resistance training 1.5 hours. • Day 9: 9 miles cycling for 50 minutes; upper body resistance exercise 1 hour; 9 miles cycling for 50 minutes. • Day 10: high-intensity resistance training for 30 minutes. • Day 11: 5 miles running for 50 minutes. Serum testosterone levels and free testosterone levels were measured on days 1 and 12. Serum testosterone increased from 734 nanograms/deciliter to 781 nanograms/deciliter, an increase of 6.4%. Free testosterone increased from 22.1 picograms/ml to 27.0 picograms/ml, an increase of 22%.

cortisol response [1] = conditions: cited from earlier work
cortisol response [2] = conditions: 800 mg, cited from earlier work
[3] = subject one, 300 mg daily for 11 days
[4] = subject two, 400 mg daily for 11 days

phosphatidylserine [PS]
increase of AUC for testosterone to cortisol ratio compared to placebo (healthy male subjects; 600 mg PS per day oral for 10 days, 10 healthy males, p<0.05): 184±5% | increase of plasma testosterone concentrations compared with placebo (healthy male subjects; 600 mg/day S-PS for 10 days): 51±6% | plasma testosterone levels at the beginning of the exercise compared to placebo (healthy male subjects; 600 mg/day S-PS for 10 days): higher plasma testosterone levels | increase of testosterone area under the curve versus placebo (healthy male subjects; 600 mg/day S-PS for 10 days, FIG. 2, p=0.02): 37±5% | mean peak concentration of testosterone (healthy male subjects; 600 mg/day S-PS for 10 days, plasma, placebo 5.5±0.3, P (treatment) 0.13): 8.3 ± 1.7 ng/mL | increase of free testosterone (older males; [3]): 22% | increase of serum testosterone (older males; [3]): 6.4% | free testosterone after treatment (older males; subject one, 300 mg daily for 11 days, day 12, day 1 22.1): 27.0 picograms/ml | serum testosterone after treatment (older males; subject one, 300 mg daily for 11 days, day 12, day 1 734): 781 nanograms/deciliter | increase of serum testosterone (older males; subject three, 600 mg for 11 days): 16% | serum testosterone after treatment (older males; subject three, 600 mg for 11 days, eleventh day, first day 575): 665 nanograms per deciliter | increase of free testosterone (older males; [4]): 58% | increase of serum testosterone (older males; [4]): 51% | free testosterone after treatment (older males; subject two, 400 mg daily for 11 days, day 12, day 1 11.4): 18.0 picograms/ml | serum testosterone after treatment (older males; subject two, 400 mg daily for 11 days, day 12, day 1 290): 437 nanograms/deciliter | cortisol response compared to placebo (cortisol response [1]; 400 mg): no significant result | lowering of cortisol response (cortisol response [1]; 800 mg supplementation): 30% | reduction of cortisol response to intensive resistance training (cortisol response [2]): 20% | effect on testosterone levels (cortisol response [2]; intensive resistance training): no effect

Reference: patent US8124594B2, “Methods using phosphatidylserine, lysophosphatidylserine, and/or salts thereof to increase testosterone levels” (Chemi Nutra, LLC, priority 2007, dated 2012)
